Target: T1, human DGAT2 (hDGAT2) (Homo sapiens, UniProt Q96PD7)
T1 construct: made in house; host or cells: Sf-9 insect cells (baculovirus infection); membrane fraction
T1 sequence (Q96PD7 1-388): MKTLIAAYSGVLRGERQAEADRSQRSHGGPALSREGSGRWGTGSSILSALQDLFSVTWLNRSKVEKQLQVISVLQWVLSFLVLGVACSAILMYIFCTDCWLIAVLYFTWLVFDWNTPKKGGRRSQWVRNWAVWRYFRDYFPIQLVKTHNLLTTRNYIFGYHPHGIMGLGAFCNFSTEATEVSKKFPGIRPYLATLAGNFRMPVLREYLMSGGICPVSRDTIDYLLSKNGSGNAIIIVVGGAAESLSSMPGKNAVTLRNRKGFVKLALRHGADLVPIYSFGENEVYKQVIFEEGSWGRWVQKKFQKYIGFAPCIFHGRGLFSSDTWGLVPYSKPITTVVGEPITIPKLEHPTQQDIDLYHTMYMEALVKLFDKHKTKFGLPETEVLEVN
Assay: DGAT2 enzymatic activity assay (LC/MS/MS detection of 13C18-triolein, Sf-9 membrane prep)
Type: biochemical
Conditions: hDGAT2 Sf-9 membrane, 25 μM diolein, 5 μM 13C oleoyl-CoA, rt
Protocol: Sf-9 insect cells were maintained in Grace's insect cell culture medium with 10% heated-inactivated fetal bovine serum, 1% Pluronic F-68 and 0.14 μg/ml Kanamycine sulfate at 27° C. in a shaker incubator. After infection with untagged baculovirus expressing human DGAT2 (hDGAT2) at multiplicity of infection (MOI) 3 for 48 hours, cells were harvested. Cell pellets were suspended in buffer containing 10 mM Tris-HCl pH 7.5, 1 mM EDTA, 250 mM sucrose and Complete Protease Inhibitor Cocktail (Sigma Aldrich), and sonicated on ice. Cell debris were removed by centrifugation at 2000×g for 15 minutes. Membrane fractions were isolated by ultracentrifugation (100,000×g), resuspended in the same buffer, and frozen (−80° C.) for later use. The protein concentration was determined with the Pierce™ BCA Protein Assay Kit (Thermo Fisher Scientific). Expression of protein levels was analyzed by immunoblotting with rabbit anti-DGAT2 antibody (Abcam, ab102831) and donkey anti-rabbit IgG H&L Alexa Fluor® 647 (Abcam, ab150075) followed by detection using Typhoon FLA9000 (GE Healthcare).
LC/MS/MS analyses were performed using Thermal Fisher's LX4-TSQ Vantage system. This system consists of an Agilent binary high-performance liquid chromatography (HPLC) pumps and a TSQ Vantage triple quadrupole MS/MS instrument. For each sample, 2 μL samples from the top organic layer of in-plate liquid-liquid extraction were injected onto a Thermo Betabasic C4 column (2.1 mm×20 mm, 5 μm particle size). The samples were then eluted using the following conditions; mobile phase: Isopropanol: acetonitrile/10 mM ammonium formate=50/35/15 (v/v/v), flow rate: 0.8 mL/min, temperature: 25° C. Data was acquired in positive mode using a heated electrospray ionization (HESI) interface. The operational parameters for the TSQ Vantage MS/MS instrument were a spray voltage of 3000 V, capillary temperature of 280° C., vaporizer temperature 400° C., sheath gas 45 arbitrary unit, Aux gas 10 arbitrary units, S-lens 165 and collision gas 1.0 mTorr. […] (SRM) chromatograms of ^13C18-triolein (Q1: 920.8>Q3:621.3) and internal standard ^13C21-triolein (Q1: 923.8>Q3:617.3) were collected for 33 sec. The peak area was integrated by Xcalibur Quan software. The ratio between the ^13C18triolein generated in the reaction and spiked in internal standard ^13C21-triolein was used to generate percentage inhibition and IC50 values. Compound percentage inhibition was calculated by the following formula: Inhibition %=1−[(compound response−low control)/(high control−low control)]×100%. Potent compounds were titrated and IC50 were calculated by 4 parameter sigmoidal curve fitting formula.
DGAT2 activity was determined by measuring the amount of enzymatic product ^13C18-triolein (^13C-1,2,3-Tri(cis-9-octadecenoyl)glycerol) using the membrane prep mentioned above. The assay was carried out in ABgene 384-well assay plates in a final volume of 25 μL at rt. The assay mixture contained the following: assay buffer (100 mM Tris.Cl, pH 7.0, 20 mM MgCl2, 5% ethanol), 25 μM of diolein, 5 μM of ^13C oleoyl-CoA and 8 ng/μL of DGAT2 membrane.

Row | SMILES | IC50 [nM]
1 | Cn1ccc(-c2nn(-c3cccc(OC(F)F)c3)c3ccc(C(=O)NC4(C)CS(=O)(=O)C4)cc23)n1 [Example 2, 1-(3-(difluoromethoxy)phenyl)-N-(3-methyl-1,1-dioxo-thietan-3-yl)-3-(l-methylpyrazol-3-yl)indazole-5-carboxamide] | 18
2 | Cn1nccc1-n1nc(-c2ccc(F)cc2)c2cc(C(=O)NC3(C)CS(=O)(=O)C3)ccc21 [Example 3, 3-(4-fluorophenyl)-N-(3-methyl-1,1-dioxo-thietan-3-yl)-1-(2-methylpyrazol-3-yl)indazole-5-carboxamide] | 389
3 | C[C@]1(NC(=O)c2cnc3c(c2)c(-c2ccc(F)cc2)nn3-c2cccc(OC(F)F)c2)CCS(=O)(=O)C1 [Example 4, (S)-1-(3-(difluoromethoxy)phenyl)-3-(4-fluorophenyl)-N-(3-methyl-l,1-dioxo-thiolan-3-yl)pyrazolo[3,4-b]pyridine-5-carboxamide] | 3.2
4 | C[C@]1(NC(=O)c2ccc3c(c2)c(-c2ccc(F)cc2)cn3-c2ccccc2Cl)CCS(=O)(=O)C1 [Example 5, (S)-1-(2-chlorophenyl)-3-(4-fluorophenyl)-N-(3-methyl-1,1-dioxidotetrahydrothiophen-3-yl)-1H-indole-5-carboxamide] | 115
5 | C[C@]1(NC(=O)c2ccc3c(c2)c(-c2ccc(F)cc2)cn3-c2cccc(OC(F)F)c2)CCS(=O)(=O)C1 [Example 6, (S)-1-(3-(difluoromethoxy)phenyl)-3-(4-fluorophenyl)-N-(3 - methyl-1,1-dioxidotetrahydrothiophen-3-yl)-1H-indole-5-carboxamide] | 0.5
6 | C[C@]1(NC(=O)c2ccc3c(c2)c(-c2ccc(F)cc2)cn3-c2ccc(F)cc2)CCS(=O)(=O)C1 [Example 7, (S)-1,3-bis(4-fluorophenyl)-N-(3-methyl-1,1-dioxidotetrahydrothiophen-3-yl)-1H-indole-5-carboxamide] | 578
7 | CC1(NC(=O)c2ccc3c(ccn3-c3cccc(OC(F)F)c3)c2)CS(=O)(=O)C1 [Example 8, 1-(3-(difluoromethoxy)phenyl)-N-(3-methyl-1,1-dioxidothietan-3-yl)-1H-indole-5-carboxamide] | 134
8 | CC(C)(CN1CCOCC1)NC(=O)c1ccc2c(c1)c(-c1ccccc1Cl)cn2-c1ccc(F)cc1 [Example 9, 3-(2-chlorophenyl)-1-(4-fluorophenyl)-N-(2-methyl-l-morpholinopropan-2-yl)-1H-indole-5-carboxamide] | 12300
9 | COCC(C)NC(=O)c1ccc2c(c1)c(-c1ccccc1Cl)cn2-c1ccc(F)cc1 (stereo not shown) [Example 10, 3-(2-chlorophenyl)-1-(4-fluorophenyl)-N-(1-methoxypropan-2-yl)-1H-indole-5-carboxamide] | 3510
10 | CC(C)c1nn(-c2cccc(OC(F)F)c2)c2ncc(C(=O)N[C@@]3(C)CCS(=O)(=O)C3)cc12 [Example 11, (S)-1-(3-(difluoromethoxy)phenyl)-3-isopropyl-N-(3-methyl-1,1-dioxidotetrahydrothlophen-3-yl)-1H-pyrazolo[3,4-b]pyridine-5-carboxamide] | 16
11 | CC(C)c1nn(-c2cccc(OC(F)F)c2)c2ncc(C(=O)NC3(C)CS(=O)(=O)C3)cc12 [Example 12] | 9.3
12 | CC(C)c1nn(-c2cccc(OC(F)F)c2)c2cnc(C(=O)NC3(C)CS(=O)(=O)C3)cc12 [Example 13] | 77
13 | CCc1nn(-c2cccc(OC(F)F)c2)c2ccc(C(=O)NC3(C)CS(=O)(=O)C3)cc12 [Example 14, l-(3-(difluoromethoxy)phenyl)-3-ethyl-N-(3-methyl-1,1-dioxo-thietan-3-yl)indazole-5-carboxamide] | 11
14 | CCCc1nn(-c2cccc(OC(F)F)c2)c2ncc(C(=O)N[C@@]3(C)CCS(=O)(=O)C3)cc12 [Example 15, (S)-1-(3-(difluoromethoxy)phenyl)-N-(3-methyl-1,1-dioxidotetrahydrothiophen-3-yl)-3-propyl-1H-pyrazolo[3,4-b]pyridine-5-carboxamide] | 6.7
15 | CC(C)c1nn(-c2cccc(C3CC3)c2)c2ncc(C(=O)NC3(C)CS(=O)(=O)C3)cc12 [Example 16, l-(3-cyclopropylphenyl)-3-isopropyl-N-(3-methyl-1,1-dioxidothietan-3-yl)-1H-pyrazolo[3,4-b]pyridine-5-carboxamide] | 14
16 | CC(C)c1nn(-c2cncc(OC(F)F)c2)c2ncc(C(=O)NC3(C)CS(=O)(=O)C3)cc12 [Example 17] | 25
17 | CC(C)c1nn(-c2cncc(OC(F)F)c2)c2ccc(C(=O)NC3(C)CS(=O)(=O)C3)cc12 [Example 18] | 56
18 | Cc1cc2c(cc1C(=O)NC1(C)CS(=O)(=O)C1)c(C(C)C)nn2-c1cccc(OC(F)F)c1 [Example 19] | 134
19 | Cc1c(C(=O)NC2(C)CS(=O)(=O)C2)ccc2c1c(C(C)C)nn2-c1cccc(OC(F)F)c1 [Example 20] | 5
20 | CC1(NC(=O)c2cnc3c(c2)c(C2CCOCC2)nn3-c2cccc(OC(F)F)c2)CS(=O)(=O)C1 [Example 21] | 7.1
21 | CC1(NC(=O)c2ccc3c(c2)c(C2(O)CCOCC2)nn3-c2cccc(OC(F)F)c2)CS(=O)(=O)C1 [Example 22] | 51
22 | CC(C)(O)Cc1nn(-c2cccc(OC(F)F)c2)c2ncc(C(=O)NC3(C)CS(=O)(=O)C3)cc12 [Example 23] | 5.8
23 | CC(C)(O)Cc1nn(-c2cc(OC(F)F)ccc2F)c2ncc(C(=O)NC3(C)CS(=O)(=O)C3)cc12 [Example 24, l-(5-(difluoromethoxy)-2-fluorophenyl)-3-(2-hydroxy-2-methylpropyl)-N-(3-methyl-1,1-dioxidothietan-3-yl)-1H-pyrazolo[3,4-b]pyridine-5-carboxamide] | 6.4
24 | Cc1ncc(OC(F)F)cc1-n1nc(CC(C)(C)O)c2cc(C(=O)NC3(C)CS(=O)(=O)C3)cnc21 [Example 25, l-(5-(difluoromethoxy)-2-methylpyridin-3-yl)-3-(2-hydroxy-2-methylpropyl)-N-(3-methyl-1,1-dioxidothietan-3-yl)-1H-pyrazolo[3,4-b]pyridine-5-carboxamide] | 705
25 | CC(C)c1nn(-c2cc(OCC(F)F)ncc2F)c2ncc(C(=O)NC3(C)CS(=O)(=O)C3)cc12 [Example 26, 1-(2-(2,2-difluoroethoxy)-5-fluoropyridin-4-yl)-3-isopropyl-N-(3-methyl-1,1-dioxidothietan-3-yl)-1H-pyrazolo[3,4-b]pyridine-5-carboxamide] | 2.2
26 | CC1(NC(=O)c2ccc3c(c2)c(C(F)F)nn3-c2cccc(OC(F)F)c2)CS(=O)(=O)C1 [Example 32, 1-(3-(difluoromethoxy)phenyl)-3-(difluoromethyl)-N-(3-methyl-1,1-dioxidothietan-3-yl)-1H-indazole-5-carboxamide] | 24
27 | CC(C)(O)c1nn(-c2cccc(OC(F)F)c2)c2ccc(C(=O)N[C@@]3(C)CCS(=O)(=O)C3)cc12 [Example 33, (S)-1-(3-(difluoromethoxy)phenyl)-3-(2-hydroxypropan-2-yl)-N-(3-methyl-1,1-dioxidotetrahydrothiophen-3-yl)-1H-indazole-5-carboxamide] | 27
28 | CC(O)c1nn(-c2cccc(OC(F)F)c2)c2ccc(C(=O)N[C@@]3(C)CCS(=O)(=O)C3)cc12 (stereo partly drawn) [Example 34, 1-(3-(difluoromethoxy)phenyl)-3-(l-hydroxyethyl)-N-((S)-3-methyl-1,1-dioxidotetrahydrothiophen-3-yl)-1H-indazole-5-carboxamide] | 83
